Laboratory results taken from patent US10487068B2, “Pyridazine derivatives as RORc modulators” (Genentech, Inc., priority 2015, dated 2019).

Biological target: T1, RORc ligand binding domain (Homo sapiens, UniProt P51449)
T1 sequence (P51449 269-508 limits assumed): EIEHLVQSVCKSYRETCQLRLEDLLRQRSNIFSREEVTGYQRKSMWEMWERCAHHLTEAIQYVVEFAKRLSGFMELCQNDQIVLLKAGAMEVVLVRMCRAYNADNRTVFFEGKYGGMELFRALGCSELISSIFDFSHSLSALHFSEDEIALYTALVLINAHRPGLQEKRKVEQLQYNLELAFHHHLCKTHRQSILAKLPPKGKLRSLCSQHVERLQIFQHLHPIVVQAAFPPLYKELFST
Assay: In Vitro RORc Ligand Binding Assay
Settings: RORc IC50, radioligand 25-[3H]hydroxycholesterol 6 nM; 0.6 ug/mL RORc receptor; 3 h at 25° C.

| IC50 [nM] | Compound |
| --- | --- |
| 1.9 | Cc1ncn(-c2cccc([C@@]34CC[C@@H](c5cc(-c6c(F)cccc6F)nnc53)C4(C)C)n2)n1 [Example 270] |
| 5.2 | CC(C)c1ncn(-c2nccc([C@@]34CC[C@@H](c5cc(-c6c(F)cccc6F)nnc53)C4(C)C)n2)n1 [Example 273] |
| 10.3 | Cc1nc(-c2ccnc([C@@]34CC[C@@H](c5cc(-c6c(F)cccc6F)nnc53)C4(C)C)n2)co1 [Example 275, 4-(2-((5R,8R)-3-(2,6-difluorophenyl)-9,9-dimethyl-5,6,7,8-tetrahydro-5,8-methanocinnolin-8-yl)pyrimidin-4-yl)-2-methyloxazole] |
| 14.9 | CC(C)(O)c1coc(-c2ccnc([C@@]34CC[C@@H](c5cc(-c6c(F)cccc6F)nnc53)C4(C)C)n2)n1 [Example 281, 2-(2-(2-((5R,8R)-3-(2,6-difluorophenyl)-9,9-dimethyl-5,6,7,8-tetrahydro-5,8-methanocinnolin-8-yl)pyrimidin-4-yl)oxazol-4-yl)propan-2-ol] |
| 4.9 | COC(=O)c1ccn(-c2nccc([C@@]34CC[C@@H](c5cc(-c6c(F)cccc6F)nnc53)C4(C)C)n2)n1 [Example 282] |
| 27.6 | CC1(C)[C@H]2CC[C@]1(c1nccc(-n3ccc(CO)n3)n1)c1nnc(-c3c(F)cccc3F)cc12 [Example 284, (1-(2-((5R,8R)-3-(2,6-difluorophenyl)-9,9-dimethyl-5,6,7,8-tetrahydro-5,8-methanocinnolin-8-yl)pyrimidin-4-yl)-1H-pyrazol-3-yl)methanol] |
| 15.1 | CC1(C)[C@H]2CC[C@]1(c1ccnc(-c3ccc(=O)[nH]c3)n1)c1nnc(-c3c(F)cccc3F)cc12 [Example 289] |
| 33.5 | CC(C)(O)c1ccn(-c2nccc([C@@]34CC[C@@H](c5cc(-c6c(F)cccc6F)nnc53)C4(C)C)n2)n1 [Example 290] |
| 34.3 | CC1(C)[C@H]2CC[C@]1(c1ccnc(-n3ccc(C(N)=O)n3)n1)c1nnc(-c3c(F)cccc3F)cc12 [Example 291] |
| 5.7 | Cc1n[nH]cc1-c1nccc([C@@]23CC[C@@H](c4cc(-c5c(F)cccc5F)nnc42)C3(C)C)n1 [Example 298] |
| 12.2 | CC1(C)[C@H]2CC[C@]1(c1ccnc(-n3ccc(CC(N)=O)n3)n1)c1nnc(-c3c(F)cccc3F)cc12 [Example 300] |
| 9.9 | CC1(C)[C@H]2CC[C@]1(c1nccc(-c3ccn[nH]3)n1)c1nnc(-c3c(F)cccc3F)cc12 [Example 302, (5R,8R)-8-(4-(1H-pyrazol-5-yl)pyrimidin-2-yl)-3-(2,6-difluorophenyl)-9,9-dimethyl-5,6,7,8-tetrahydro-5,8-methanocinnoline] |
| 15 | CC1(C)[C@H]2CC[C@]1(c1ccnc(-n3ccc(=O)[nH]3)n1)c1nnc(-c3c(F)cccc3F)cc12 [Example 303] |
| 9.4 | CC(C)(O)c1cc(-c2cccc([C@@]34CC[C@@H](c5cc(-c6c(F)cccc6F)nnc53)C4(C)C)n2)[nH]n1 [Example 304, 2-(5-(6-((5R,8S)-3-(2,6-difluorophenyl)-9,9-dimethyl-5,6,7,8-tetrahydro-5,8-methanocinnolin-8-yl)pyridin-2-yl)-1H-pyrazol-3-yl)propan-2-ol] |
| 19.6 | CC1(C)[C@H]2CC[C@]1(c1ccnc(-n3cnc(N)n3)n1)c1nnc(-c3c(F)cccc3F)cc12 [Example 305] |

Further lines, the molecule ahead of its results:

| Compound | IC50 [nM] |
| --- | --- |
| CC(C)(O)c1cc(-c2cncc([C@@]34CC[C@@H](c5cc(-c6c(F)cccc6F)nnc53)C4(C)C)n2)on1 [Example 269, 2-(5-(6-((5R,8S)-3-(2,6-difluorophenyl)-9,9-dimethyl-5,6,7,8-tetrahydro-5,8-methanocinnolin-8-yl)pyrazin-2-yl)isoxazol-3-yl)propan-2-ol] | 3 |
| CC1(C)[C@H]2CC[C@]1(c1ccnc(-n3cnc(C(F)(F)F)n3)n1)c1nnc(-c3c(F)cccc3F)cc12 [Example 271] | 4.4 |
| CC1(C)[C@H]2CC[C@]1(c1ccnc(-n3cnc(C4CC4)n3)n1)c1nnc(-c3c(F)cccc3F)cc12 [Example 274] | 2 |
| CC(C)(O)c1ncn(-c2nccc([C@@]34CC[C@@H](c5cc(-c6c(F)cccc6F)nnc53)C4(C)C)n2)n1 [Example 276] | 15.5 |
| CNC(=O)c1nc(-c2ncc(F)c([C@@]34CC[C@@H](c5cc(-c6c(F)cccc6F)nnc53)C4(C)C)n2)no1 [Example 277] | 12.4 |
| CC[C@@H](O)c1n[nH]c(-c2cncc([C@@]34CC[C@@H](c5cc(-c6c(F)cccc6F)nnc53)C4(C)C)n2)n1 [Example 278, (R)-1-(5-(6-((5R,8S)-3-(2,6-difluorophenyl)-9,9-dimethyl-5,6,7,8-tetrahydro-5,8-methanocinnolin-8-yl)pyrazin-2-yl)-1H-1,2,4-triazol-3-yl)propan-1-ol] | 6.8 |
| C[C@@H](O)Cc1n[nH]c(-c2cncc([C@@]34CC[C@@H](c5cc(-c6c(F)cccc6F)nnc53)C4(C)C)n2)n1 [Example 279, (R)-1-(5-(6-((5R,8S)-3-(2,6-difluorophenyl)-9,9-dimethyl-5,6,7,8-tetrahydro-5,8-methanocinnolin-8-yl)pyrazin-2-yl)-1H-1,2,4-triazol-3-yl)propan-2-ol] | 12.6 |
| CC(C)(O)c1c[nH]c(-c2cncc([C@@]34CC[C@@H](c5cc(-c6c(F)cccc6F)nnc53)C4(C)C)n2)n1 [Example 280, 2-(2-(6-((5R,8S)-3-(2,6-difluorophenyl)-9,9-dimethyl-5,6,7,8-tetrahydro-5,8-methanocinnolin-8-yl)pyrazin-2-yl)-1H-imidazol-4-yl)propan-2-ol] | 13.6 |
| CC1(C)[C@H]2CC[C@]1(c1nc(-c3nc(C(N)=O)no3)ncc1F)c1nnc(-c3c(F)cccc3F)cc12 [Example 283] | 11.6 |
| CC1(C)[C@H]2CC[C@]1(c1cncc(-c3nc(C4(O)CC4)n[nH]3)n1)c1nnc(-c3c(F)cccc3F)cc12 [Example 285, 1-(5-(6-((5R,8S)-3-(2,6-difluorophenyl)-9,9-dimethyl-5,6,7,8-tetrahydro-5,8-methanocinnolin-8-yl)pyrazin-2-yl)-1H-1,2,4-triazol-3-yl)cyclopropanol] | 4.1 |
| CC1(C)[C@H]2CC[C@]1(c1cncc(-c3nc([C@@H](O)CO)n[nH]3)n1)c1nnc(-c3c(F)cccc3F)cc12 [Example 286, (R)-1-(5-(6-((5R,8S)-3-(2,6-difluorophenyl)-9,9-dimethyl-5,6,7,8-tetrahydro-5,8-methanocinnolin-8-yl)pyrazin-2-yl)-1H-1,2,4-triazol-3-yl)ethane-1,2-diol] | 10.6 |
| CC1(C)[C@H]2CC[C@]1(c1nc(-n3ccc(CO)n3)ncc1F)c1nnc(-c3c(F)cccc3F)cc12 [Example 287] | 12.1 |
| CC1(C)[C@H]2CC[C@]1(c1nc(-c3nc(CO)no3)ncc1F)c1nnc(-c3c(F)cccc3F)cc12 [Example 288, (5-(4-((5R,8S)-3-(2,6-difluorophenyl)-9,9-dimethyl-5,6,7,8-tetrahydro-5,8-methanocinnolin-8-yl)-5-fluoropyrimidin-2-yl)-1,2,4-oxadiazol-32-(1-(4-((5R,8S)-3-(2,6-difluorophenyl)-9,9-dimethyl-5,6,7,8-tetrahydro-5,8-methanocinnolin-8-yl)pyrimidin-2-yl)-1H-pyrazol-3-yl)propan-2-ol-yl)methanol] | 20.3 |
| CC(C)(O)c1nc(-c2ncc(Cl)c([C@@]34CC[C@@H](c5cc(-c6c(F)cccc6F)nnc53)C4(C)C)n2)no1 [Example 292] | 13.9 |
| CC1(C)[C@H]2CC[C@]1(c1cncc(-c3nc(C[C@H](O)CO)n[nH]3)n1)c1nnc(-c3c(F)cccc3F)cc12 [Example 293, (S)-3-(5-(6-((5R,8S)-3-(2,6-difluorophenyl)-9,9-dimethyl-5,6,7,8-tetrahydro-5,8-methanocinnolin-8-yl)pyrazin-2-yl)-1H-1,2,4-triazol-3-yl)propane-1,2-diol] | 28 |
| CC1(C)[C@H]2CC[C@]1(c1cncc(-c3nc(CS(C)(=O)=O)n[nH]3)n1)c1nnc(-c3c(F)cccc3F)cc12 [Example 294] | 23.3 |
| CC[C@H](O)c1n[nH]c(-c2cncc([C@@]34CC[C@@H](c5cc(-c6c(F)cccc6F)nnc53)C4(C)C)n2)n1 [Example 295, (S)-1-(5-(6-((5R,8S)-3-(2,6-difluorophenyl)-9,9-dimethyl-5,6,7,8-tetrahydro-5,8-methanocinnolin-8-yl)pyrazin-2-yl)-1H-1,2,4-triazol-3-yl)propan-1-ol] | 15.2 |
| CC1(C)[C@H]2CC[C@]1(c1cncc(C3=NNC(=O)CN3)n1)c1nnc(-c3c(F)cccc3F)cc12 [Example 296, 3-(6-((5R,8S)-3-(2,6-difluorophenyl)-9,9-dimethyl-5,6,7,8-tetrahydro-5,8-methanocinnolin-8-yl)pyrazin-2-yl)-4,5-dihydro-1,2,4-triazin-6(1H)-one] | 20.9 |
| C[C@H](O)Cc1n[nH]c(-c2cncc([C@@]34CC[C@@H](c5cc(-c6c(F)cccc6F)nnc53)C4(C)C)n2)n1 [Example 297, (S)-1-(5-(6-((5R,8S)-3-(2,6-difluorophenyl)-9,9-dimethyl-5,6,7,8-tetrahydro-5,8-methanocinnolin-8-yl)pyrazin-2-yl)-1H-1,2,4-triazol-3-yl)propan-2-ol] | 19.9 |
| CC1(C)[C@H]2CC[C@]1(c1ccnc(N3CC(C(N)=O)C3)n1)c1nnc(-c3c(F)cccc3F)cc12 [Example 299] | 24.1 |
| CC(C)(O)c1nc(-c2cncc([C@@]34CC[C@@H](c5cc(-c6c(F)cccc6F)nnc53)C4(C)C)n2)c[nH]1 [Example 301, 2-(4-(6-((5R,8S)-3-(2,6-difluorophenyl)-9,9-dimethyl-5,6,7,8-tetrahydro-5,8-methanocinnolin-8-yl)pyrazin-2-yl)-1H-imidazol-2-yl)propan-2-ol] | 13.6 |
